Results reported in BindingDB's records for doi:10.3109/14756366.2012.715288 (Ankara University, 2013).

Key:
[1] = biological target: Tyrosine-protein kinase Lyn (Homo sapiens, UniProt P07948); assay: In Vitor Src Tyrosine Kinase Activity Assay; details: 22 °C
Method: (§1) Kinase activity (Src-family kinases, Hck, Lyn, Fyn, and c-Src) and the effect of the molecules were determined by ProFluor Src-Family Kinase Assay Kit (Promega). […] The compounds were dissolved in 10% DMSO and tested at 1, 10 and 100 μM concentrations. Briefly, the molecules were mixed with a reaction buffer that included a specific substrate for Src-family kinases (R110), a control substrate and the kinase. The reaction was initiated by the addition of ATP. After incubating the 96-well reaction plate at 22°C for 1 h, protease solution was added to each well and the plate was incubated for 1 h.

[2] = biological target: Proto-oncogene tyrosine-protein kinase Src (Homo sapiens, UniProt P12931); assay: In Vitor Src Tyrosine Kinase Activity Assay; details: 22 °C
Method: as §1

Proto-oncogene tyrosine-protein kinase Src, sequence (P12931 2-536 limits assumed): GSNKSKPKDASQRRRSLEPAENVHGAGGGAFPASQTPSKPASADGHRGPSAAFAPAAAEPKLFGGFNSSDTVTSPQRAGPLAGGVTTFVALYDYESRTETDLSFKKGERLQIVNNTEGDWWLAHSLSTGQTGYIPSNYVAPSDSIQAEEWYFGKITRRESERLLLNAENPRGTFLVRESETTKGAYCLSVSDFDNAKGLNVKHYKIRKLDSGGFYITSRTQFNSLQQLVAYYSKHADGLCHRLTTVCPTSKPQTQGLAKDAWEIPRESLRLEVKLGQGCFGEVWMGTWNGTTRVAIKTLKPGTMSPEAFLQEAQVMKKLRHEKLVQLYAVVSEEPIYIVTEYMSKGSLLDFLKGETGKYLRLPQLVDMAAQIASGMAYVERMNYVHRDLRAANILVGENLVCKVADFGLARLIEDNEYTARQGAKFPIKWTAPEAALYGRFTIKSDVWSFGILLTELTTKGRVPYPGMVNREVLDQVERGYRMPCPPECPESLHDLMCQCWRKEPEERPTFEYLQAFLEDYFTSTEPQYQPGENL
Tyrosine-protein kinase Lyn, sequence (P07948 whole entry): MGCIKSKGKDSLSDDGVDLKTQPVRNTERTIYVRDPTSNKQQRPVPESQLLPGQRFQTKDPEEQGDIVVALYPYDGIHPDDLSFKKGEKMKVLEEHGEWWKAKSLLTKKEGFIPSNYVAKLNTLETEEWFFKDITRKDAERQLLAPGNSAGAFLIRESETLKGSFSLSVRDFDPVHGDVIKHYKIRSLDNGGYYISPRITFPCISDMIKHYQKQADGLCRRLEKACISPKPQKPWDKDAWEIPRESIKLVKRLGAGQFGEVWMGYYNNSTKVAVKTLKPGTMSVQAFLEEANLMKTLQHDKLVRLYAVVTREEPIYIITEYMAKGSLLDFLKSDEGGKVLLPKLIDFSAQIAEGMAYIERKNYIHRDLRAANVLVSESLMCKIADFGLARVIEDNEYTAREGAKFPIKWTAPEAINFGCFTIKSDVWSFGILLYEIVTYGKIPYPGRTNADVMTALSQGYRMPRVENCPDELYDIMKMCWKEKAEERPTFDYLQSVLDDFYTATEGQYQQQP

CN1CCN(C2CCC(n3cc(-c4ccc(Oc5ccccc5)cc4)c4c(N)ncnc43)CC2)CC1 (centres undefined) [A-419259]
IC50 [1]: 0.0003 µM

COc1cccc(-c2cn(-c3ccc(CCN4CCC(O)CC4)cc3)c3ncnc(N)c23)c1 [CGP77675]
IC50 [2]: 0.0004 µM

COc1ccc(CCCC(=O)NCc2c[nH]c3nc(N)[nH]c(=O)c23)cc1OC [N-((2-Amino-4-oxo-4,7-dihydro-3H-pyrrolo[2,3-d]pyrimidin-5-yl)methyl)-4-(3,4-dimethoxyphenyl)butanamide (5)]
IC50 [2]: 21 µM

Cc1ccc(C(=O)NCc2c[nH]c3nc(N)[nH]c(=O)c23)s1 [N-[(2-Amino-4-oxo-4,7-dihydro-3H-pyrrolo[2,3-d]pyrimidin-5-yl)methyl]-5-methylthiophene-2-carboxamide (7)]
IC50 [2]: 16 µM
